The subject of assay [1] is Mus musculus. The experiment in a line: Antihyperglycemic effect in STZ-diabetic ddY mouse assessed as reduction in blood glucose level at 150 umol/kg, ip after 4 to 6 hrs by glucose oxidase method. The format is functional, organism-based.
For assay [2], the system named is Mus musculus. The experiment in a line: Antihyperglycemic effect in STZ-diabetic ddY mouse assessed as reduction in blood glucose level at 150 umol/kg, ip after 2 hrs by glucose oxidase method. The format is functional, organism-based. The note with it: TDE = time-dependent effect.
Assay [3] has as its system Mus musculus. The experiment in a line: Antihyperglycemic effect on STZ-diabetic ddY mouse assessed as increase in plasma insulin level at 300 umol/kg, ip after 30 mins by ELISA. Format: functional. (In general: In an ELISA, binding on a coated surface is turned into a signal by an enzyme label.)
Assay [4] deals with Mus musculus. The experiment in a line: Antihyperglycemic effect on STZ-diabetic ddY mouse assessed as increase in plasma insulin level at 300 umol/kg, ip after 2 hrs by ELISA. The format is functional.
In assay [5] the test system is Pancreas. The experiment in a line: Potentiation of 8.3 mM glucose-induced immunoreactive insulin release in perfused Wistar rat pancreas by radioimmunoassay. The format is functional, tissue-based.
The subject of assay [6] is Pancreas. The experiment in a line: Potentiation of 8.3 mM glucose-induced immunoreactive insulin release in perfused Wistar rat pancreas at 1 mM by radioimmunoassay. Format: functional, tissue-based.
Assay [7] has as its system Mus musculus. The experiment in a line: Antihyperglycemic effect in STZ-diabetic ddY mouse assessed as reduction in blood glucose level at 150 umol/kg, ip after 4 hrs by glucose oxidase method. The format is functional, organism-based.
Assay [8] has as its system Mus musculus. The experiment in a line: Antihyperglycemic effect in STZ-diabetic ddY mouse assessed as reduction in blood glucose level at 30 umol/kg, ip after 6 hrs by glucose oxidase method. Format: functional.
The species entered for assay [9] is Mus musculus. The experiment in a line: Antihyperglycemic effect on STZ-diabetic ddY mouse assessed as reduction in blood glucose level by glucose oxidase method. Format: functional, organism-based.

The source made the active and inactive calls. No cut-off for these calls is given here.

As to `O[C@H]1[C@H](O)[C@@H](O)CN2CC[C@H](O)[C@H]12`, the outcome in assay [1] was Active. Take `OC[C@H]1NCC[C@@H](O)[C@@H]1O` [FAGOMINE]: the Activity result in assay [2] was “tde”; in assay [3], 454 pg/mL; in assay [4] it was 560 pg/mL; in assay [5], “Dose-dependent effect”. In addition, the outcome in assay [6] was Active. Turning to `OC[C@H]1N[C@H](CO)[C@@H](O)[C@@H]1O`, in assay [7], the outcome was Active. Consider `COc1ccc(Cl)cc1C(=O)NCCc1ccc(S(=O)(=O)NC(=O)NC2CCCCC2)cc1` [GLYBURIDE], for which, in assay [8], the Activity is 138 mg/dL. On to `OC[C@H]1NCC[C@@H](O)[C@@H]1O[C@@H]1O[C@H](CO)[C@@H](O)[C@H](O)[C@H]1O`, for which, in assay [9], the Activity entry is “Dose-dependent effect”.
